Numbering of substitutions follows the chain as printed.
What was measured:
[1] = target: T1, WT Slo2.1 channels (Homo sapiens, UniProt Q6UVM3); test: Activation of ISlo2.1 by NFA, two-electrode voltage clamp in oocytes; format: cell-based
T1 sequence (Q6UVM3 1-1135): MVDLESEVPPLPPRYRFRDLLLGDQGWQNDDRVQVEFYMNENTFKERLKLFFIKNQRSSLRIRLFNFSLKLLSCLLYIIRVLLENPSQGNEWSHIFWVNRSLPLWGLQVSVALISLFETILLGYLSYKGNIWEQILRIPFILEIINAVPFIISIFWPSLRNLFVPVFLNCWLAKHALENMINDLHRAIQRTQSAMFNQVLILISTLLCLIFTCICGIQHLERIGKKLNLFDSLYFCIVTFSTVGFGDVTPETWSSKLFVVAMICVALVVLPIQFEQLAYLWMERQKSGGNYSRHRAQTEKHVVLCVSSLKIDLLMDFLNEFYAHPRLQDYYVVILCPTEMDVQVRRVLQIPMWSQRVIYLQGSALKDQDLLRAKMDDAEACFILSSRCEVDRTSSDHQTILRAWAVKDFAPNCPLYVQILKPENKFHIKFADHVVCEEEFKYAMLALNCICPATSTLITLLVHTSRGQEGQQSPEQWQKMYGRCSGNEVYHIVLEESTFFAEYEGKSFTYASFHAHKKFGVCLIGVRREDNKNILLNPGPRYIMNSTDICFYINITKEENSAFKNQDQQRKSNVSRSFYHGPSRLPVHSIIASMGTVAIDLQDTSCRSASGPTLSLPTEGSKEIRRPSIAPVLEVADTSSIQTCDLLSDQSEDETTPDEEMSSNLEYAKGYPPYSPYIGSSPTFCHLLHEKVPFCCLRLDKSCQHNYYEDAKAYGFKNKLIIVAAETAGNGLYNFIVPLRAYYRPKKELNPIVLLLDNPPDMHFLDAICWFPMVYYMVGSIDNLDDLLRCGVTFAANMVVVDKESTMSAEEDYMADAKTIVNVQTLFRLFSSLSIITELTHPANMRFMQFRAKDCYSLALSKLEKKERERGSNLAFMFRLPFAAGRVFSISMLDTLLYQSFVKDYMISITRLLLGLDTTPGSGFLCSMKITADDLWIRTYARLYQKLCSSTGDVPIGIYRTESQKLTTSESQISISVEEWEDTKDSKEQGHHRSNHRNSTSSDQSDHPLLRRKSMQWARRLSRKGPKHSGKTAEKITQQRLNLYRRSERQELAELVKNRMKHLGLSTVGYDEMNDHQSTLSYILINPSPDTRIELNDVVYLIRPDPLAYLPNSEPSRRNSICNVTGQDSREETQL

[2] = target: T2, E275D Slo2.1 channels (Homo sapiens, UniProt Q6UVM3, E275D); test: as above; format: cell-based
T2 sequence (Q6UVM3 1-1135 E275D): T1 sequence (Q6UVM3 1-1135) with E275D

EC50 [1]: 2100 ± 100 µM | time to peak response of ISlo2.1 during repetitive pulsing ([1]; 6 mM NFA, oocytes injected with ≤1 ng WT cRNA): ~3 min | EC50 [2]: 192 µM | Hill coefficient nH of NFA activation ([2]; E275D): 1.08 ± 0.09 | EC50 for E275D lower than EC50 for WT channels ([2]; E275D vs WT): 11 fold | maximal increase in current at 0 mV ([2]; E275D, 3 mM NFA (maximally effective concentration)): ~2.5 fold
Compound: O=C(O)c1cccnc1Nc1cccc(C(F)(F)F)c1 [NFA, niflumic acid]

Source: PMC3813382 (The Journal of General Physiology, 2013)
